Measurements: patent US6399542B1, “Alkoxyimino-substituted bicyclic compounds compositions containing the same and method of making such compounds” (Agro-Kanesho Co., Ltd., priority 1997, dated 2002)
Where two headings read alike, the source gives them in different places.

How the values were obtained:
Rhizoctonia solani = assay: Effect on Rice sheath blight (preventive spray test); conditions: 10 days after inoculation
Description: An emulsion of a compound of the present invention prepared in Preparation Example 2 was diluted with water and uniformly sprayed on 5 rice plant seedlings (variety: Koshihikari) in 4.5-leaf stage in each plastic pot having a diameter of 6 cm, with a spray gun. One day after the spraying, the seedlings were bundled at the second sheath with a string. Colonies of Rhizoctonia solani previously cultured in PSA culture medium were bored with a cork borer to obtain pieces having a diameter of 4 mm. The piece was put in the bundle, and kept in a high-humidity room at 25° C. until the examination. Ten days after the inoculation, the degree of the disease was examined, and the preventive rate (effect of inhibiting the disease) was calculated on the basis of the following standard:
Preventive rate=[1-D′/C′]×100
C′: Severity in untreated section
D′: Severity in treated section.

Pyricularia oryzae = assay type: in vivo; conditions: Rice blast, 7 days after inoculation
Erysiphe graminis = assay: Effects on Barley powdery mildew (preventive spray test); assay type: in vivo; conditions: lesions counted seven days after inoculation
Puccinia recondita = assay: Effect on Wheat brown rust (preventive spray test); assay type: in vivo; conditions: 7 days after inoculation
Puccinia recondite = assay: Penetration and translocation in wheat leaves (covered leaf tip, brown rust); assay type: in vivo; conditions: conc. of active ingredient 200 ppm
[1] = test system: Psecidoperonospora cubensis; assay: Effect on Cucumber downy mildew (preventive spray test); assay type: in vivo; conditions: 7 days after inoculation
Phytophthora infestans = assay type: in vivo; conditions: Tomato late blight, 5 days after inoculation
Chochliobolus miyabeanus = assay: Effect on Rice brown spot (preventive spray test); assay type: in vivo; conditions: 7 days after inoculation
[2] = test system: Pseudoperonospora cubenis; assay: Penetration and translocation in cucumber leaf (drop on back of leaf, downy mildew); assay type: in vivo; set-up: key: 3: At least 40% of the area of the leaf was free from the disease.; 20 to 40% of the area of the leaf was free from the disease.; 1: An area larger than the spot of the drop but smaller than 20% of the area of the leaf was free from the disease.; 0: Only the spot of the drop was free from the disease; conditions: 10 μl drop on back of leaf, conc. of active ingredient 200 ppm, disease-free area 5 days after the spraying
Description: Four points were marked at random on the first leaf of each cucumber seedling (variety: Shogoin aonaga fushinari) in two-leaf stage in each pot having a diameter of 6 cm. […] The leaf was kept in a greenhouse for one day and then uniformly inoculated with a zoospore suspension of Pseudoperonospora cubenis by means of a spray gun, then left to stand in a high-humidity room at 24° C. for 24 hours, and kept in a greenhouse. The area of the disease-free part 5 days after the spraying was represented in terms of the index.
3: At least 40% of the area of the leaf was free from the disease.
2: 20 to 40% of the area of the leaf was free from the disease.
1: An area larger than the spot of the drop but smaller than 20% of the area of the leaf was free from the disease.
0: Only the spot of the drop was free from the disease.

Aphis gossypii = assay: Effect on Aphis gossypii (cucumber seedling spray); conditions: Test Example 15
Description: 5 or 6 imagoes of Aphis gossypii were released on a cucumber seedling of 1- or 2-leaf stage in a pot. Two days after, the larvae were confirmed and the imagoes were removed. Then 500 ppm or 50 ppm of a compound of the present invention in the form of an emulsion diluted with water was sprayed on the cucumber seedling. After air-drying, the leaves were cut and put in a plastic vessel having a size of 9 cm (inner diameter)×6.5 cm (depth). The lid was put on the vessel, which was then left in a room kept at 26° C. for 48 hours and then the numbers of the living imagoes and dead ones were counted, and the rate of dead imagoes was calculated (repetition: twice).

Botrytis cinerea = assay: Effect on Cucumber gray mold (cotyledon paper disc test); assay type: in vivo; conditions: 3 days after inoculation
Spodoptera litura = assay: Effect on Spodoptera litura (chinese cabbage leaf spray); conditions: Test Example 12
Description: 500 ppm of a compound of the present invention in the form of an emulsion diluted with water was sprayed on a leaf of chinese cabbage seedling in 3- to 4-leaf stage. After air-drying, the leaf was placed in a plastic vessel having a size of 21 cm(length)×13 cm(width)×3 cm (depth). Ten larvae of Spodoptera litura of the third instar were put therein. The lid was put on the vessel, which was then left in a room kept at 26° C. for 48 hours and then the numbers of the living imagoes and dead ones were counted, and the rate of dead imagoes was calculated (repetition: twice).

Nephotettix cincticeps = assay: Effect on Nephotettix cincticeps (rice seedling immersion); conditions: Test Example 14
Description: Rice plant seedlings were immersed in 500 ppm or 50 ppm of a compound of the present invention in the form of an emulsion diluted with water for 10 seconds. After air-drying, the root of each seedling was covered with a wet absorbent cotton and the seedling was put in a test tube. Ten larvae of Nephotettix cincticeps of the second instar were put therein. The opening of the test tube was covered with a gauze, and the test tube was then left in a room kept at 26° C. for 48 hours and then the numbers of the living imagoes and dead ones were counted, and the rate of dead imagoes was calculated (repetition: twice).

Tetranychus kanzawai = assay: Effect on Tetranychus kanzawai (green bean leaf spray); conditions: Test Example 11
Description: A piece (3 cm×5 cm) of green bean leaf was placed with the backside up, on a filter paper wet with water so as to prevent the leaf from drying, and inoculated with 10 female imagoes of Tetranychus kanzawai per a leaf. 24 hours after the inoculation, 500 ppm of a compound of the present invention in the form of an emulsion diluted with water was sprayed thereon. After air-drying, the piece was left to stand in a room kept at 26° C. for 24 hours and then the numbers of the living imagoes and dead ones were counted, and the rate of dead imagoes was calculated (repetition: twice).

Plutella xylostella = assay: Effect on Plutella xylostella (Chinese cabbage leaf spray); conditions: Test Example 13
Description: 500 ppm or 50 ppm of a compound of the present invention in the form of an emulsion diluted with water was sprayed on a leaf of Chinese cabbage seedling in 3- to 4-leaf stage. After air-drying, the leaf was placed in a plastic vessel having a size of 9 cm (inner diameter)×6.5 cm (depth). Ten larvae of Plutella xylostella of the third instar were put therein. The lid was put on the vessel, which was then left in a room kept at 26° C. for 48 hours and then the numbers of the living imagoes and dead ones were counted, and the rate of dead imagoes was calculated (repetition: twice).

[3] = conc. of active ingredient 20 ppm
[4] = conc. of active ingredient 100 ppm

Q: With CNC(=O)/C(=N/OC)c1ccccc1COc1ccc2c(c1)OCC2=NOC [a-5, (E) methoxyimino-[2-(3-methoxyimino-2,3-dihydro-benzofuran-6-yloxymethyl)phenyl]-N-methyl-acetamide] as the molecule, how does the “Preventive rate (%)” value (Rhizoctonia solani; [3]) read?
A: 70%

Q: What about the “Preventive rate (%)” value (Rhizoctonia solani; [4]) of the same molecule?
A: 84%

Q: And the “Preventive rate (%)” value (Pyricularia oryzae; [3])?
A: 90%

Q: And the “Preventive rate (%)” value (Pyricularia oryzae; [4])?
A: 96%

Q: What about the “Preventive rate (%)” value (Erysiphe graminis; [3]) of the same molecule?
A: 95%

Q: And the “Preventive rate (%)” value (Erysiphe graminis; [4])?
A: 100%

Q: And the “Preventive rate (%)” value (Puccinia recondita; [3])?
A: 100%

Q: What about the “Preventive rate (%)” value (Puccinia recondita; [4]) of the same molecule?
A: 100%

Q: What about the melting point of the same molecule?
A: 143 to 145 °C

Q: And the “Number of lesions formed within the mark to the tip” value (Puccinia recondite)?
A: 0

Q: And the “Preventive rate (%)” value (Puccinia recondite)?
A: 100%

Q: What about the “Rate of the translocation perfect preventive conc. (%)” value (Puccinia recondite) of the same molecule?
A: 100%

Q: And the “Preventive rate (%)” value [1, 3]?
A: 88%

Q: And the “Preventive rate (%)” value [1, 4]?
A: 94%

Q: And the “Preventive rate (%)” value (Phytophthora infestans; [3])?
A: 97%

Q: And the “Preventive rate (%)” value (Phytophthora infestans; [4])?
A: 100%

Q: And the “Preventive rate (%)” value (Chochliobolus miyabeanus; [3])?
A: 89%

Q: And the “Preventive rate (%)” value (Chochliobolus miyabeanus; [4])?
A: 96%

Q: And the Index [2]?
A: 3 (At least 40% of the area of the leaf was free from the disease.)

Q: With CNC(=O)/C(=N/OC)c1ccccc1COc1ccc2c(c1)CCC2 [comparative compound (1), 2-methoxyimino-2-[2-(indane-5-yloxymethyl)-phenyl]-acetic acid methylamide, reference compound] as the molecule, how does the “effect of controlling insect pests” value (Aphis gossypii) read?
A: did not exhibit the effect of controlling insect pests

Q: What about the “Preventive rate (%)” value (Botrytis cinerea; [3]) of the same molecule?
A: 25%

Q: And the “Preventive rate (%)” value (Botrytis cinerea; [4])?
A: 44%

Q: And the “Preventive rate (%)” value (Rhizoctonia solani; [3])?
A: 0%

Q: And the “Preventive rate (%)” value (Rhizoctonia solani; [4])?
A: 24%

Q: What about the “effect of controlling insect pests” value (Spodoptera litura) of the same molecule?
A: did not exhibit the effect of controlling insect pests

Q: And the “Preventive rate (%)” value (Pyricularia oryzae; [3])?
A: 48%

Q: And the “Preventive rate (%)” value (Pyricularia oryzae; [4])?
A: 63%

Q: What about the “Preventive rate (%)” value (Erysiphe graminis; [3]) of the same molecule?
A: 17%

Q: And the “Preventive rate (%)” value (Erysiphe graminis; [4])?
A: 99%

Q: What about the “effect of controlling insect pests” value (Nephotettix cincticeps) of the same molecule?
A: did not exhibit the effect of controlling insect pests

Q: What about the “Preventive rate (%)” value (Puccinia recondita; [3]) of the same molecule?
A: 86%

Q: And the “Preventive rate (%)” value (Puccinia recondita; [4])?
A: 99%

Q: And the “effect of controlling insect pests” value (Tetranychus kanzawai)?
A: did not exhibit the effect of controlling insect pests

Q: What about the “Number of lesions formed within the mark to the tip” value (Puccinia recondite) of the same molecule?
A: 48

Q: What about the “Preventive rate (%)” value (Puccinia recondite) of the same molecule?
A: 23%

Q: What about the “Rate of the translocation perfect preventive conc. (%)” value (Puccinia recondite) of the same molecule?
A: 4.4%

Q: What about the “Preventive rate (%)” value [1, 3] of the same molecule?
A: 30%

Q: What about the “Preventive rate (%)” value [1, 4] of the same molecule?
A: 81%

Q: And the “Preventive rate (%)” value (Phytophthora infestans; [3])?
A: 63%

Q: What about the “Preventive rate (%)” value (Phytophthora infestans; [4]) of the same molecule?
A: 94%

Q: What about the “Preventive rate (%)” value (Chochliobolus miyabeanus; [3]) of the same molecule?
A: 0%

Q: What about the “Preventive rate (%)” value (Chochliobolus miyabeanus; [4]) of the same molecule?
A: 64%

Q: What about the Index [2] of the same molecule?
A: 0

Q: And the “effect of controlling insect pests” value (Plutella xylostella)?
A: did not exhibit the effect of controlling insect pests

Q: With CO/N=C(\C(=O)OC)c1ccccc1COc1ccc2c(c1)CCCC2 [comparative compound (2), 2-methoxyimino-2-[2-(5,6,7,8-tetrahydronaphthalene-2-yloxymethyl)phenyl]-methylacetate, reference compound] as the molecule, how does the “effect of controlling insect pests” value (Aphis gossypii) read?
A: did not exhibit the effect of controlling insect pests

Q: What about the “Preventive rate (%)” value (Botrytis cinerea; [3]) of the same molecule?
A: 11%

Q: And the “Preventive rate (%)” value (Botrytis cinerea; [4])?
A: 21%

Q: What about the “Preventive rate (%)” value (Rhizoctonia solani; [3]) of the same molecule?
A: 0%

Q: What about the “Preventive rate (%)” value (Rhizoctonia solani; [4]) of the same molecule?
A: 0%

Q: And the “effect of controlling insect pests” value (Spodoptera litura)?
A: did not exhibit the effect of controlling insect pests

Q: What about the “Preventive rate (%)” value (Pyricularia oryzae; [3]) of the same molecule?
A: 49%

Q: What about the “Preventive rate (%)” value (Pyricularia oryzae; [4]) of the same molecule?
A: 55%

Q: And the “Preventive rate (%)” value (Erysiphe graminis; [3])?
A: 59%

Q: What about the “Preventive rate (%)” value (Erysiphe graminis; [4]) of the same molecule?
A: 100%

Q: What about the “effect of controlling insect pests” value (Nephotettix cincticeps) of the same molecule?
A: did not exhibit the effect of controlling insect pests

Q: And the “Preventive rate (%)” value (Puccinia recondita; [3])?
A: 70%

Q: What about the “Preventive rate (%)” value (Puccinia recondita; [4]) of the same molecule?
A: 100%

Q: What about the “effect of controlling insect pests” value (Tetranychus kanzawai) of the same molecule?
A: did not exhibit the effect of controlling insect pests

Q: And the “Preventive rate (%)” value [1, 3]?
A: 70%

Q: What about the “Preventive rate (%)” value [1, 4] of the same molecule?
A: 93%

Q: And the “Preventive rate (%)” value (Phytophthora infestans; [3])?
A: 38%

Q: And the “Preventive rate (%)” value (Phytophthora infestans; [4])?
A: 100%

Q: And the “Preventive rate (%)” value (Chochliobolus miyabeanus; [3])?
A: 20%

Q: And the “Preventive rate (%)” value (Chochliobolus miyabeanus; [4])?
A: 85%

Q: And the “effect of controlling insect pests” value (Plutella xylostella)?
A: did not exhibit the effect of controlling insect pests
